The subject of one assay is Ehrlich solid tumor. Put plainly: Anti-tumor test against Ehrlich solid tumor. It counts as in vivo, ddY/SLC mice. How it is done: Ehrlich tumor cells, 2×10^6, on Day 7 after intraperitoneal transplantation to ddY/SLC mice were subcutaneously transplanted in the left abdomen of ddY/SLC mice (5 week age, male), 10 each grouped into one. The active component was intraperitoneally or orally administered in a definite dose 24 hours after the transplantation, according to the schedule shown in Table 1 (A), (B) or (C). An effect of inhibiting growth of tumor was compared, by measuring the long diameter and short diameter of the tumor on 14, 20 and 21 Days after the transplantation, calculating the tumor size (mm^2) and determining a tumor growth inhibition rate of the group administered with the active component to the control group according to the following equation:
Growth inhibition rate (%)=(C-T)/C×100
T: means tumor size (mm^2) in the active component-administered group
C: mean tumor size (mm^2) in the control group

Another assay has as its system melanoma BL-6. As to the kind of experiment: Inhibition of experimental metastasis (to the lung) of melanoma BL-6 in mice. It counts as in vivo, male BDF1 /SLC mice. Conditions: 22th day. The procedure:
(b) Inhibition of experimental metastasis (to the lung) of melanoma BL-6 in mice
BL-6 cancer cells, 5×10^4, were inoculated into the tail veins of male BDF1 /SLC mice (6 week age) of 6 mice each being grouped in one (13 mice for the control group). The test compounds were administered orally in a definite dose 24 hours after the inoculation. In order to see metastasis-inhibitory effect, on 22th day after the inoculation, the mice were anatomised to observe the metastasis to the lungs. The degree of metastasis was evaluated by the number of pulmonary nodules. [formula] T: Median number of pulmonary nodules of the administered group C: Median number of pulmonary nodules of the control group

The test system of another assay is Meth A solid tumor. As to the kind of experiment: Anti-tumor test against methyl cholanthrene-induced Meth A solid tumor. It counts as in vivo, Balb/C/SLC mice. The settings on record: 1-8 Days. How it is done: (§1) Meth A tumor cells, 1.5×10^6, on Day 7 after intraperitoneal transplantation to Balb/C/SLC mice were subcutaneously transplanted to the left abdomen of Balb/C/SLC mice (5 week age, male) of 8 mice each being grouped in one (16 mice for the control group). The active component was orally administered in a definite dose 24 hours after the transplantation according to the schedule shown in Table 3. An effect of tumor growth inhibition was compared by measuring the long diameter and short diameter of the tumor on Days 15 and 21 after the transplantation, calculating the tumor size (mm^2) and determining a tumor growth inhibition rate of the active component-administered group to the control group.

The next assay relates to MM-46 solid tumor. Put plainly: Test against mouse mammalian MM-46 solid tumor. It counts as in vivo, C3 H/He/SLC mice. The settings on record: 1-9 Days. How it is done: as §1, with “MM-46 Tumor” for “Meth A tumor”, “1×10^6,” for “1.5×10^6,”, “C3 H/He/SLC” for “Balb/C/SLC”, “(21” for “(16”, “2.” for “3.”, “14” for “15”
Where [1] appears, read: Day 14, 25 mg/kg i.p., Days 1, 2, 3, 5, 6, 7 & 9.
The mark [2] stands for this setting: Day 14, 50 mg/kg i.p., Days 1, 2, 3, 5, 6, 7 & 9.
Setting [3] is: Day 14, 100 mg/kg i.p., Days 1, 2, 3, 5, 6, 7 & 9.
Where [4] appears, read: Day 21, 25 mg/kg i.p., Days 1, 2, 3, 5, 6, 7 & 9.
[5] abbreviates: Day 21, 50 mg/kg i.p., Days 1, 2, 3, 5, 6, 7 & 9.
Where [6] appears, read: Day 21, 100 mg/kg i.p., Days 1, 2, 3, 5, 6, 7 & 9.
The mark [7] stands for this setting: Day 14, 50 mg/kg i.p., Days 1, 2, 3, 4, 6, 7, 8, 9.
Setting [8] is: Day 14, 100 mg/kg i.p., Days 1, 2, 3, 4, 6, 7, 8, 9.
[9] abbreviates: Day 21, 50 mg/kg i.p., Days 1, 2, 3, 4, 6, 7, 8, 9.
[10] abbreviates: Day 21, 100 mg/kg i.p., Days 1, 2, 3, 4, 6, 7, 8, 9.
[11] abbreviates: 50 mg/kg oral, 1, 2, 3, 5, 6, 7, 8, 9 and 10 days.
The mark [12] stands for this setting: 100 mg/kg oral, 1, 2, 3, 5, 6, 7, 8, 9 and 10 days.
Setting [13] is: Day 14, 1.0 mg/kg i.p., Days 1, 2, 3, 5 & 6.
Where [14] appears, read: Day 21, 1.0 mg/kg i.p., Days 1, 2, 3, 5 & 6.

SMILES strings stand for the structures.

Regarding `CCOC(=O)C(C)(C)CCCCCOc1ccc(OCCCCCn2ccnc2)cc1` [Compound C], the “Growth Inhibition Rate” value in the assay on Ehrlich solid tumor (setting [1]) amounted to 18.4%; with Ehrlich solid tumor (setting [2]), 42.4%; with Ehrlich solid tumor (setting [3]), 54.2%; in the assay with Ehrlich solid tumor (setting [4]), 31.9%; in the assay on Ehrlich solid tumor (setting [5]), 61.0%; in the assay on Ehrlich solid tumor (setting [6]), 4.2%. The “Size of Tumor” value in the assay with Ehrlich solid tumor (setting [1]) came out at 191.1 ± 88.8 mm^2; with Ehrlich solid tumor (setting [2]), 135.0 ± 66.9 mm^2; in the assay on Ehrlich solid tumor (setting [3]) it was 107.3 ± 46.7 mm^2; with Ehrlich solid tumor (setting [4]), 363.1 ± 188.8 mm^2; with Ehrlich solid tumor (setting [5]), 207.9 ± 139.7 mm^2; with Ehrlich solid tumor (setting [6]), 190.7 ± 69.1 mm^2.

`COC(=O)C(C)(C)CCCOc1ccc(OCCCOc2cccnc2)cc1` [Compound I, methyl 2,2-dimethyl-5-[p-[3-(3-pyridyloxy)propoxy]phenoxy]pentanoate]: the “Growth Inhibition Rate” value in the assay on Ehrlich solid tumor (setting [1]) is 29.6%; in the assay on Ehrlich solid tumor (setting [2]) it was 26.2%; in the assay on Ehrlich solid tumor (setting [3]), 36.5%; in the assay on Ehrlich solid tumor (setting [4]), 36.9%; with Ehrlich solid tumor (setting [5]), 30.7%; in the assay on Ehrlich solid tumor (setting [6]), 45.6%. Moreover, the “Size of Tumor” value in the assay with Ehrlich solid tumor (setting [1]) is 164.9 ± 96.2 mm^2; in the assay on Ehrlich solid tumor (setting [2]), 172.8 ± 82.9 mm^2; in the assay on Ehrlich solid tumor (setting [3]) it was 148.7 ± 66.8 mm^2; with Ehrlich solid tumor (setting [4]) it was 336.6 ± 160.0 mm^2; in the assay on Ehrlich solid tumor (setting [5]), 369.1 ± 203.5 mm^2; in the assay with Ehrlich solid tumor (setting [6]) it was 290.2 ± 115.5 mm^2.

In the case of `CCOC(=O)C(C)(C)CCCCOc1ccc(OCCCCCOc2ccccn2)cc1` [Compound J, ethyl 6-[p-[5-(2-pyridyloxy)pentyloxy)phenoxy]-2,2-dimethylhexanoate], the “Growth Inhibition Rate” value with Ehrlich solid tumor (setting [7]) came to 20.9%; in the assay on Ehrlich solid tumor (setting [8]), 34.7%; in the assay on Ehrlich solid tumor (setting [9]) it was 19.2%; in the assay with Ehrlich solid tumor (setting [10]), 38.2%. In addition, the “Size of Tumor” value in the assay with Ehrlich solid tumor (setting [7]) stood at 201.7 ± 48.2 mm^2; with Ehrlich solid tumor (setting [8]), 166.5 ± 65.3 mm^2; with Ehrlich solid tumor (setting [9]), 344.7 ± 108.4 mm^2; in the assay with Ehrlich solid tumor (setting [10]) it was 263.5 ± 97.1 mm^2.

In the case of `O=c1[nH]c(=O)n(C2CCCO2)cc1F` (stereo not shown) [Futoraful, reference compound], in the assay with melanoma BL-6 (setting [11]), the Pulmonary metastasis-inhibition rate was found to be 35.7%; the “The number of pulmonary nodules, median” value is listed as 13.5; the “The number of pulmonary nodules, range” value is 1-49. In the assay on melanoma BL-6 (setting [12]), the Pulmonary metastasis-inhibition rate is given as 69.0%; the “The number of pulmonary nodules, median” value is recorded as 6.5; the “The number of pulmonary nodules, range” value was 1-16.

Consider `CO[C@@]12[C@H](COC(N)=O)C3=C(C(=O)C(C)=C(N)C3=O)N1C[C@@H]1N[C@@H]12` [Mitomycin, reference compound], for which the results for the “Growth Inhibition Rate” value in the assay with Ehrlich solid tumor (setting [13]) and in the assay on Ehrlich solid tumor (setting [14]) were 67.7% and 80.0%, respectively. In addition, the “Size of Tumor” value is reported as 75.6 ± 31.5 mm^2 in the assay with Ehrlich solid tumor (setting [13]) and 106.8 ± 62.2 mm^2 with Ehrlich solid tumor (setting [14]).

Turning to `O=c1[nH]c(=O)n(C2CCCO2)cc1F` (stereo not shown) [Tetrahydrofuryl-5-fluorouracil, reference compound], the “Growth Inhibition Rate” value stood at 45.1% in the assay with Meth A solid tumor (Day 15, 50 mg/kg p.o.); 58.6% in the assay on Meth A solid tumor (Day 15, 100 mg/kg p.o.); 50.7% in the assay with Meth A solid tumor (Day 21, 50 mg/kg p.o.); 44.7% with Meth A solid tumor (Day 21, 100 mg/kg p.o.); 14.2% in the assay with MM-46 solid tumor (Day 14, 50 mg/kg p.o.); 14.7% with MM-46 solid tumor (Day 14, 100 mg/kg p.o.). Further, the “Growth Inhibition Rate” value was determined as 26.9% in the assay on MM-46 solid tumor (Day 21, 50 mg/kg p.o.) and 26.0% in the assay with MM-46 solid tumor (Day 21, 100 mg/kg p.o.). The “Size of Tumor” value stood at 123.4 ± 69.9 mm^2 with Meth A solid tumor (Day 15, 50 mg/kg p.o.); 93.1 ± 50.3 mm^2 in the assay on Meth A solid tumor (Day 15, 100 mg/kg p.o.); 235.8 ± 124.4 mm^2 in the assay with Meth A solid tumor (Day 21, 50 mg/kg p.o.); 264.4 ± 110.6 mm^2 with Meth A solid tumor (Day 21, 100 mg/kg p.o.); 216.0 ± 55.1 mm^2 in the assay on MM-46 solid tumor (Day 14, 50 mg/kg p.o.); 214.8 ± 55.6 mm^2 in the assay with MM-46 solid tumor (Day 14, 100 mg/kg p.o.). In addition, the “Size of Tumor” value with MM-46 solid tumor (Day 21, 50 mg/kg p.o.) came out at 247.0 ± 101.8 mm^2; in the assay on MM-46 solid tumor (Day 21, 100 mg/kg p.o.), 250.1 ± 92.9 mm^2.
